Consider one compound from publication PMC7714071, “Interaction of amyloid beta with humanin and acetylcholinesterase is modulated by ATP” (FEBS Open Bio, 2020).

One data set relates to H1299 cells. Kind of data set: MTT cell viability, H1299. In kind it is cell-based, human. As to conditions: 48 h, Fig. 7B; for effect of ATP on viability in HN-ID media: HN-immunodepleted media, versus no ATP; for effect on cell viability: control media, three experiments in triplicate. The method, then:
(§1) Human NSCLC cell lines, A549 (ATCC CCL‐185) and H1299 (ATCC CRL‐5803), were purchased from the American Type Culture Collection (ATCC, Manassas, VA, USA). Cells were seeded as we reported earlier in 5 mL HyClone Dulbecco's modified Eagle's medium/nutrient mixture F‐12 (DMEM/F12) (GE Healthcare Life Sciences, Pittsburgh, PA, USA), supplemented with 10% Fetalgro bovine growth serum (FBS; RMBIO, Missoula, MT, USA), 50 U·mL^−1 penicillin, and […] streptomycin (Invitrogen, Life Technologies, Carlsbad, CA, USA) in 25‐cm^2 tissue culture flasks, and allowed to grow overnight in an incubator at 37 °C, 95% humidity, and 5% CO2. The cells were counted after trypan blue staining, with a hemocytometer.
(§2) The 3‐(4,5‐dimethylthiazol‐2‐yl)‐2,5‐diphenyl‐tetrazolium bromide (MTT) reduction assay (Sigma‐Aldrich), used to measure cell viability, was carried out as we reported earlier. Cells were seeded in 96‐well plates as indicated in 200 μL 10% FBS‐supplemented media per well and maintained overnight at 95% humidity and 5% CO2. After an overnight incubation, the media were replaced with 200 μL serum‐free media, and the cells were further incubated, without or with different treatments, for 24, 48, or 72 h. The final concentration of DMSO in each well never exceeded 0.1%. The cells were then incubated for 4 h with MTT (0.5 mg·mL^−1) in the dark. The media were carefully removed, and DMSO (100 μL) was added to dissolve the formazan crystals. The absorbance was measured at 570 nm in a plate reader. Untreated cells or wells containing only DMSO and media were used as a positive and negative control, respectively. Statistical analysis was conducted using […] PRISM version 8.4.3 for Windows. Significant values were considered at P < 0.05 and more significant values at P < 0.01, compared with the control.
(§3) Conditioned media were immunodepleted (ID) according to the methods previously described and our recently published report. Briefly, specific antibodies were bound to ELISA wells overnight (1 : 1000 dilution). The wells were then blocked and washed, then 300 μL of the conditioned medium (0.5 μg·μL^−1) treated as indicated, 72 h postserum starvation, was incubated with the antibodies bound to ELISA wells for 24 h. The ID media were then carefully removed and analyzed for the presence of the target protein or peptide by ELISA. The same amount of protein (3 µL of 600 µg·mL^−1 total protein) of each sample was analyzed in the experiments. Significant depletion (95–100%) was observed upon using each of the antibodies employed in this study.
(§4) Since addition of ATP appears to increase binding of HN to Aβ, and conversely, decreases the interaction of Aβ with AChE (Figs 3, 4, 5, 6), we tested the effect of added ATP on A549 and H1299 cell viability (Fig. 7). Exogenously added ATP at either 100 µM or 1 mM had no effect on viability of either A549 (Fig. 7A) or H1299 cells (Fig. 7B). […] To determine the effect of ID of AChE or HN in the absence or presence of added ATP on cell viability, ID media were prepared by first seeding 0.2 × 10^5 cells per well in 96‐well plates in 10% FBS‐supplemented media. The next day, the cells were incubated in serum‐free medium for 72 h, then ID of AChE or HN as described in Materials and methods. For cell viability assays, cells were seeded in 96‐well plates at 0.2 × 10^5 cells per well in 200 µL 10% FBS‐supplemented media followed by incubation in serum‐free medium for 12 h, then treated with the ID media for 48 h. […]

In a further data set the test system is A549 cells. Put plainly: MTT cell viability, A549. Type of data set: cell-based, human. As to conditions: 48 h, Fig. 7A; for effect of ATP on viability in HN-ID media: HN-immunodepleted media, versus no ATP; for effect on cell viability: control media, three experiments in triplicate. As for the experimental part:
as §1, §2, §3, §4

Turning to `Nc1ncnc2c1ncn2[C@@H]1O[C@H](COP(=O)(O)OP(=O)(O)OP(=O)(O)O)[C@@H](O)[C@H]1O` [ATP, Adenosine triphosphate], the “effect of ATP on viability in AChE-depleted media” value in the data set with H1299 cells (AChE-immunodepleted media) and with A549 cells (AChE-immunodepleted media) was “did not affect cell viability” each time. The “effect of ATP on viability in HN-ID media” value in the data set on H1299 cells (ATP 100 µM), with H1299 cells (ATP 1 mM), in the data set on A549 cells (ATP 100 µM) and in the data set with A549 cells (ATP 1 mM) was “No change in cell viability” throughout. The “effect on cell viability” value in the data set with H1299 cells (ATP 100 µM), with H1299 cells (ATP 1 mM), with A549 cells (ATP 100 µM) and with A549 cells (ATP 1 mM) was “no effect” each time.
